Measured values reported in ChEMBL document CHEMBL1129252, “Identification of a 3-hydroxylated tacrine metabolite in rat and man: metabolic profiling implications and pharmacology” (J Med Chem, 1996).

Key:
Acetylcholinesterase [1] = biological target: T1, Acetylcholinesterase (Mus musculus, UniProt P21836)
T1 sequence (P21836 whole entry): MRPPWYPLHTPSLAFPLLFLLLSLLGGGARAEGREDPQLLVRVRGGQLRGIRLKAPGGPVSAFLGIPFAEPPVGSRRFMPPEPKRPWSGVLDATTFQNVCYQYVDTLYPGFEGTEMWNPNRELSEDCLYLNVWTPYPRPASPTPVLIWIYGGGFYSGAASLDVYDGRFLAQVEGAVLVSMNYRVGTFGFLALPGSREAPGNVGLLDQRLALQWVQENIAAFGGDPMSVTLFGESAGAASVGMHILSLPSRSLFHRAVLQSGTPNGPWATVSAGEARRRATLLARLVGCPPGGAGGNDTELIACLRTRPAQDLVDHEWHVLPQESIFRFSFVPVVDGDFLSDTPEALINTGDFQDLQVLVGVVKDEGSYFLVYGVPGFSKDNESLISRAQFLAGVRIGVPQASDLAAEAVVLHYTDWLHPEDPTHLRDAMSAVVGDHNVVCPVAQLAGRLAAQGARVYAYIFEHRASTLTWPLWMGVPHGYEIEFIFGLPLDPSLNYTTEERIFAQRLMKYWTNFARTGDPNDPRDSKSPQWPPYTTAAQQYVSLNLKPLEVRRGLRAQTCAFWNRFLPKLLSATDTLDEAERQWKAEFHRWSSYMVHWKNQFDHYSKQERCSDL
Description: Inhibition of Acetylcholinesterase in mouse red blood cell

Acetylcholinesterase [2] = biological target: T2, Acetylcholinesterase (Rattus norvegicus, UniProt P37136)
T2 sequence (P37136 whole entry): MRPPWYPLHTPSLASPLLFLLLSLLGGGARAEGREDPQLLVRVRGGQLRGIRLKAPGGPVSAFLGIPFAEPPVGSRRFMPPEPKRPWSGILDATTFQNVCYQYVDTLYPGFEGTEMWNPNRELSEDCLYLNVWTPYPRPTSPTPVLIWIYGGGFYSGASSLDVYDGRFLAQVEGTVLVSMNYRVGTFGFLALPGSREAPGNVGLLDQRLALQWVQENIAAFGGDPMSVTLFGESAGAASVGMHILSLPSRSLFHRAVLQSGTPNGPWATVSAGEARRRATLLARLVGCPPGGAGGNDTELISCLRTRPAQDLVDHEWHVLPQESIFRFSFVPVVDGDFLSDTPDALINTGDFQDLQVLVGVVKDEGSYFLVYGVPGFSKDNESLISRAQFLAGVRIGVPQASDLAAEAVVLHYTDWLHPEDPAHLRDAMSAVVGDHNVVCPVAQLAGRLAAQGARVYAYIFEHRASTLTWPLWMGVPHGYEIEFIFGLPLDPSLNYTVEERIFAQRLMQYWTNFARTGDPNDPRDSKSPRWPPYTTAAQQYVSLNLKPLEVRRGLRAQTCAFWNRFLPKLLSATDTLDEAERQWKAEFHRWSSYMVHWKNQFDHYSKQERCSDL
Description: Inhibition of Acetylcholinesterase in rat red blood cell

Acetylcholinesterase [3] = biological target: Acetylcholinesterase (Homo sapiens, UniProt P22303)
Sequence of Acetylcholinesterase (Homo sapiens, UniProt P22303) (P22303 whole entry): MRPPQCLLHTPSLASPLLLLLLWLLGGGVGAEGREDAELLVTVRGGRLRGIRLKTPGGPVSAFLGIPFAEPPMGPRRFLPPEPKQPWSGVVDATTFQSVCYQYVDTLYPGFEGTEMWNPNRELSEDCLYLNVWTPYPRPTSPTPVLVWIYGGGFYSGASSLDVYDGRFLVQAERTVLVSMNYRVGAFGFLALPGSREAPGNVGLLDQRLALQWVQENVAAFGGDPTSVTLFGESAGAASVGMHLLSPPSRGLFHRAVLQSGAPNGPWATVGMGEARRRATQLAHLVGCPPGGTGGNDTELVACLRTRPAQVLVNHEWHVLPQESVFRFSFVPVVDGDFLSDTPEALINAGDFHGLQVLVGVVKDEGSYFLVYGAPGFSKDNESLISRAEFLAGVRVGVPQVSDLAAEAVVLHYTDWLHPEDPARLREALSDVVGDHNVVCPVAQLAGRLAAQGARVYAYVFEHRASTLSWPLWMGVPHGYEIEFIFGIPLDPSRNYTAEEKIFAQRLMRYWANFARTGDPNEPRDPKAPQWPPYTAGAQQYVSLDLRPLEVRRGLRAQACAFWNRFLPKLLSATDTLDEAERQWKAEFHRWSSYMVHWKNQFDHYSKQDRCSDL
Description: Inhibition of Acetylcholinesterase in human red blood cell

Row | SMILES | IC50 (Acetylcholinesterase [1]) [nM] | IC50 (Acetylcholinesterase [2]) [nM] | IC50 (Acetylcholinesterase [3]) [nM]
1 | Nc1c2c(nc3ccccc13)CCC(O)C2 (stereo not given) | 4820 | 1770 | 1610
2 | Nc1c2c(nc3ccccc13)C(O)CCC2 (stereo not given) | 1430 | 411 | 521
3 | Nc1c2c(nc3ccccc13)CC(O)CC2 (stereo not given) [7-HYDROXYTACRINE] | 1210 | 483 | 623
4 | Nc1c2c(nc3ccccc13)CCCC2O (stereo not given) [VELNACRINE] | – | 361 | –
